Experiments:
[1] = test system: PFA fixed MCF-7 cells; assay: CLSM imaging of fixed cells, co-staining with DAPI; assay type: cell-based; conditions: fixed MCF-7, excitation 442 nm, emission 620 nm
Protocol: In another embodiment, co-staining experiments were performed with DAPI, a commonly used commercial nuclear staining agent.
To ensure that DAPI had no influence in internalization of the complexes 1 and 2, identical experiments with fixed MCF-7 cells in absence of DAPI were performed (FIG. 22 c) and a distinct red emission were observed from the nucleus. Luminescence intensity profile plots confirmed that the emission was actually from the nucleus.
MCF-7 and HEK293T cells were cultured in DMEM respectively supplemented with 10% FBS and penicillin/streptomycin. Cell lines were maintained at 37° C. in an atmosphere of 5% CO2 and routinely sub-cultured. For CLSM, cell cultures were grown on 6 well plate with coverslips, after 24 hrs of incubation the cells were treated with solutions of 1 or 2 (20 μM,) in serum containing media and incubated for 2 h. After incubation media was removed and cells were washed with 1×PBS buffer and fixed them using paraformaldehyde and stained for confocal microscopy. Nuclear staining was performed by using DAPI. Olympus Fluoview was used to observe the compound staining Compound was excited at 443 nm and emission was detected at 620 nm wavelength.
DAPI was excited by using a 405 nm diode laser and emission detected with a 420-480 nm long-pass band-filter. (FIG. 14, 15, 16, 17)

[2] = Partition coefficient (log P), shake-flask method, n-octanol/water; conditions: for log P: values of text and unnumbered table; for LogP: values of Table 2
Protocol: Partition coefficients (log P) for these three complexes were evaluated by shake-flask method and these were correlated to the lipophilicity of respective complexes.
n-Octanol saturated water and water saturated octanol was obtained using Millipore water stirred with n-octanol for 24 h before the two layers were separated by centrifugation (3000 rpm, 5 min). The chloride salts of complex 1 and 2 were dissolved in n-octanol saturated water giving concentrations ranging from 0.5 to 3.0 mmol. This was then mixed with water saturated n-octanol in the ratio of 1:1 (v/v). Resulting solvent mixtures were vertexed for 30 min at room temperature, and then were subjected to centrifugation (3000 rpm, 5 min) to get two distinct separate layers. Samples from each layer were obtained using a fine-gauge needle and the absorbance of respective complex in each phase determined using UV-Vis spectroscopy.

[3] = test system: calf-thymus DNA (CT-DNA); assay: Isothermal titration calorimetry (ITC) binding to CT-DNA; conditions: for ΔG / ΔH / −TΔS: Tris-HCl buffer pH=7.4, 25° C; for N [bp]: one set of site binding model
Protocol: Relative binding affinity of complexes 1, 2, and 3 towards calf-thymus DNA (CT-DNA) were evaluated using isothermal titration calorimetry (ITC) (FIG. 20). Association constants and thermodynamic parameters (Table 4) clearly reveal that the binding affinities for complexes 1 and 2
ITC experiments were performed with the Microcal iTC200. CT-DNA (0.1 mmol) and complexes 1 (5 mmol), 2 (5 mmol) and 3 (5 mmol) were used for these experiments. All titrations were conducted in Tris-HCl buffer (5 mmol Tris and 25 mmol NaCl), pH=7.4 at 25° C. In each titration CT-DNA was loaded into the cell and 1 or 2 or 3 were taken into the syringe. Aliquot of 2 μL of compounds were injected into the cell containing DNA. In each experiment, the raw isotherms were corrected for heat of dilution by subtracting the isotherms representing the compounds injected into the Tris-HCl buffer. The resulting isotherms were fitted with the one set of site binding model provided with Microcal iTC200. (Refer FIG. 21)

[4] = Fluorescence quantum yield and luminescence lifetime (TCSPC) in water; assay type: physicochemical; conditions: pure aqueous medium; for τ (luminescence lifetime): excitation 443 nm; for Φf (fluorescence quantum yield): reference Ru(bpy)3Cl2
From the text: UV-Vis spectra were obtained by using a Cary 500 scan UV-Vis-NIR spectrometer. Room temperature emission spectrum was obtained using an Edinburgh instrument Xe-900 spectro fluorometer. The fluorescence quantum yields, Φf were estimated by using equation 1 in water medium using the integrated emission intensity of Ru(bpy)3Cl2 (Φf=0.042 in H2O at RT) as a reference. (FIG. 20)
Luminescent lifetimes were obtained using a Horiba TCSPC (Time Correlated Single Photon Counting) system exciting at 443 nm. 10,000 counts were collected for each lifetime measurement and all measurements were performed in triplicate using DAS software to confirm results. The calculation of the luminescent lifetimes was performed by fitting an exponential decay function to each decay plot to extract the lifetime information using DAS6 fluorescence decay analysis software (FIG. 2).

[5] = test system: MCF-7 cell line; assay: Cellular uptake and quantification of Ru by MP-AES; assay type: cell-based; conditions: MCF-7, 50 μM, 24 h, 37° C
Protocol: Cellular accumulation studies for complexes 1, 2, and 3 were conducted on the MCF-7 cell line. Briefly, 2.5×10^5-1×10^6 cells were seeded on a petridish; the metal complexes were then added to give final concentrations of 50 μM and allowed a further 24 h of drug exposure at 37° C. After this time, cells were treated with trypsin, counted using haemocytometer, and cells collected were digested overnight in concentrated nitric acid (73%) at 60° C.; Samples were made up to exactly 10 mL using deionized water and the amount of ruthenium taken up by the cells was estimated by MP-AES (Microwave Plasma Atomic Emission Spectroscopy), using an Agilent Technologies instrument (Model No: 4100 MP-AES). The solvent used for all MP-AES experiments was double deionized water (DDW). The concentrations used for the calibration curve were in all cases 0, 5, 7.5, 10 ppm. The isotope detected was ^101Ru; readings were made in duplicate (N2 gas mode).

[6] = test system: live MCF-7 cells; assay: CLSM imaging of live cells, co-staining with ER-Tracker Green; assay type: cell-based; conditions: live MCF-7, 50 μM, 37° C
Protocol: In the light of the negligible toxicity towards MCF-7 cells, the application of the above complexes as potential as imaging agents was explored in live MCF-7 cells by incubating the cells separately with 50 μM of 1, 2, and 3 at 37° C.

[7] = Photostability under continuous irradiation by confocal microscopy; assay type: physicochemical; conditions: for reduction of fluorescence intensity upon irradiation: fixed MCF-7, exposure at 442 nm for 300 sec
From the text: In yet another embodiment, photostability of these two complexes 1 & 2 compared with that for DAPI dye by using confocal microscopy.

[8] = test system: nuclear DNA of fixed MCF-7 cells; assay: DNase I / RNase A digest experiments (CLSM); assay type: cell-based; conditions: fixed MCF-7 cells pre-treated with DNase I
Protocol: Further, in order to check the preferential binding of these two reagents to nuclear DNA, deoxyribonuclease (DNase I) and ribonuclease (RNase A) digest experiments were carried out. DNase I is an enzyme that catalyzes the hydrolytic cleavage of phosphodiester linkages in the DNA and RNase A is a type of nuclease that catalyzes the degradation of RNA into smaller components. DAPI was used for control experiments.

[9] = Water solubility

| Compound | staining of fixed cells [1] | log P [2] | ΔG [3] | ΔH [3] | −TΔS [3] | N [bp] [3] | τ (luminescence lifetime) [4] | Φf (fluorescence quantum yield) [4] | Ru accumulation [5] | extent of cellular uptake [6] | intracellular localisation of emission in live cells [6] | fluorescence intensity upon continuous irradiation ([7]; fixed MCF-7, at 359 nm for 300 sec) | LogP [2] | intracellular fluorescence intensity from the nucleus after DNase I pre-treatment [8] | reduction of fluorescence intensity upon irradiation [7] | water solubility [9] |
| --- | --- | --- | --- | --- | --- | --- | --- | --- | --- | --- | --- | --- | --- | --- | --- | --- |
| Cc1ccnc(-c2cc(C)ccn2)c1.F[P-](F)(F)(F)(F)F.F[P-](F)(F)(F)(F)F.[Ru+2].c1ccc(-c2ccccn2)nc1.c1ccc(-c2ccccn2)nc1 [Complex 3, [Ru(bpy)2(L3)]2+, reference compound] | non-specific staining of cellular compartments | −1.1 | −4.52 ± 0.25 Kcal/M^−1 | 0.51 ± 0.25 Kcal/M^−1 | 5.03 Kcal/M^−1l | 0.354 ± 0.14 bp | 321 ns | 0.05 | 0.8 ppm/10^6 cells | less as compared to the complexes 1 and 2 | did not show any such specificity towards lipid dense regions |  |  |  |  |  |
| N=C(N)c1ccc(-c2cc3ccc(C(=N)N)cc3[nH]2)cc1 [DAPI, 4′,6-diamidino-2-phenylindole, reference compound] |  |  |  |  |  |  |  |  |  |  |  | drastically reduced |  |  |  |  |
| {bis-(2,2′-bpy)-(1-((4′-methyl-[2,2′-bipyridin]-4-yl)methyl)pyrimidine-2,4(1H,3H)-dione)}ruthenium(II) dichloride [Complex 2] | as efficient as DAPI in staining the nucleus |  | −6.00 ± 0.02 Kcal/M^−1 | 1.47 ± 0.02 Kcal/M^−1 | 7.47 Kcal/M^−1l | 0.98 ± 0.01 bp | 323 ns | 0.050 | 2.3 ppm/10^6 cells |  | exactly superimposed with those for ER-Tracker™ Green |  | −1.59 ± 0.09 | significantly reduced | ~20% | highly water soluble |
| {bis-(2,2′-bpy)-(5-fluoro-1-((4′-methyl-[2,2′-bipyridin]-4-yl)methyl)pyrimidine-2,4(1H,3H)-dione)}ruthenium(II) dichloride [Complex 1] | as efficient as DAPI in staining the nucleus | −0.85 | −6.68 ± 0.41 Kcal/M^−1 | −35.5 ± 0.41 Kcal/M^−1 |  | 0.61 ± 0.0 bp | 336 ns | 0.048 | 1.5 ppm/10^6 cells |  | exactly superimposed with those for ER-Tracker™ Green |  | −0.99 ± 0.05 | significantly reduced | ~20% | highly water soluble |

Reference: US9505794B2, “Ruthenium (II) complexes, preparation and uses thereof” (priority 2014, dated 2016)
